From ChEMBL document CHEMBL1137921, “Substrate analogs for the investigation of deoxyxylulose 5-phosphate reductoisomerase inhibition: synthesis and evaluation” (Bioorg Med Chem Lett, 2004)

T1: 1-deoxy-D-xylulose 5-phosphate reductoisomerase (Synechocystis sp. (strain PCC 6803 / Kazusa), UniProt Q55663)
T1 sequence (Q55663 whole entry): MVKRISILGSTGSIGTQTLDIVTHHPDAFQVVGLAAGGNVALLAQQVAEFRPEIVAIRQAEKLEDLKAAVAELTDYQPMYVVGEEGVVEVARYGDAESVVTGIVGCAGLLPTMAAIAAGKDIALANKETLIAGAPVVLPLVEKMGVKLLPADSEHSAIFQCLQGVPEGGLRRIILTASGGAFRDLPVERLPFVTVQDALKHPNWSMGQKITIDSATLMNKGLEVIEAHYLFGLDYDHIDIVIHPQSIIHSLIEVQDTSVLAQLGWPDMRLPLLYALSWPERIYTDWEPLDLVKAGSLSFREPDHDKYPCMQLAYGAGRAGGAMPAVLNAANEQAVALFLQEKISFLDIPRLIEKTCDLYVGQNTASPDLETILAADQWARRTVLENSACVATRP

T2: 1-deoxy-D-xylulose 5-phosphate reductoisomerase (Escherichia coli K-12, UniProt P45568)
T2 sequence (P45568 whole entry): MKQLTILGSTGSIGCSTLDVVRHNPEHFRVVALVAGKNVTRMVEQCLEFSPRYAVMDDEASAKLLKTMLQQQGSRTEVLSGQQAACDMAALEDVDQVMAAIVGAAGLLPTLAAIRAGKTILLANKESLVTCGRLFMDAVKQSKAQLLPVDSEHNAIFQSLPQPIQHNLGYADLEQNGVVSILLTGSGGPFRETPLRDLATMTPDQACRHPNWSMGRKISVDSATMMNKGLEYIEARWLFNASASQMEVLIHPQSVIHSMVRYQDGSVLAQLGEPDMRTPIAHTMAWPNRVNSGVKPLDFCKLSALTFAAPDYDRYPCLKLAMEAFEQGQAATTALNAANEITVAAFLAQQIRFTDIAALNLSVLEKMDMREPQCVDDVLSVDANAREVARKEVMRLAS


Columns and labels:
[1] = biological target: T1, 1-deoxy-D-xylulose 5-phosphate reductoisomerase; test: Binding affinity against Synechocystis strain PCC6803 DXP reductoisomerase; set-up: species or system Synechocystis sp. PCC 6803
[2] = biological target: T2, 1-deoxy-D-xylulose 5-phosphate reductoisomerase; test: Inhibitory activity against Escherichia coli deoxyxylulose 5-phosphate reductoisomerase
[3] = substrate: CC(=O)[C@@H](O)[C@H](O)CCP(=O)(O)O; test: Michaelis-Menten constant for Synechocystis strain PCC6803 DXP reductoisomerase; conditions: Synechocystis sp. PCC 6803

| Ki [1] | Ki [2] | Molecule | Km [3] |
| --- | --- | --- | --- |
| 630 µM | – | CCC(=O)[C@@H](O)[C@H](O)COP(=O)(O)O | – |
| 150 µM | 800 µM | CC(=O)C[C@H](O)COP(=O)(O)O | – |
| 90 µM | – | NC(=O)[C@@H](O)[C@H](O)COP(=O)(O)O | – |
| 30 µM | 120 µM | CC(=O)[C@@H](O)CCOP(=O)(O)O | – |
| 180 µM | – | CC(=O)[C@@H](O)[C@@H](O)COP(=O)(O)O | – |
| 0.021 µM | – | O=CN(O)CCCP(=O)(O)O [FOSMIDOMYCIN] | – |
| – | – | 1-deoxy-D-xylulose 5-phosphate reductoisomerase (Synechocystis sp. (strain PCC 6803 / Kazusa)), Q55663 (protein) MVKRISILGSTGSIGTQTLDIVTHHPDAFQVVGLAAGGNVALLAQQVAEFRPEIVAIRQAEKLEDLKAAVAELTDYQPMYVVGEEGVVEVARYGDAESVVTGIVGCAGLLPTMAAIAAGKDIALANKETLIAGAPVVLPLVEKMGVKLLPADSEHSAIFQCLQGVPEGGLRRIILTASGGAFRDLPVERLPFVTVQDALKHPNWSMGQKITIDSATLMNKGLEVIEAHYLFGLDYDHIDIVIHPQSIIHSLIEVQDTSVLAQLGWPDMRLPLLYALSWPERIYTDWEPLDLVKAGSLSFREPDHDKYPCMQLAYGAGRAGGAMPAVLNAANEQAVALFLQEKISFLDIPRLIEKTCDLYVGQNTASPDLETILAADQWARRTVLENSACVATRP | 690 µM |
